Measured values taken from patent publication US10376520B2, “Methods for the treatment of cardiovascular disorders” (Galapagos NV, priority 2015, dated 2019).

System: RA patients
Assay: [HDL] determination, Study 2 (RA patients, monotherapy)
Format: in vivo, human
Conditions: for [HDL] Mean percentage CFB - 12 weeks results / [HDL] Median percentage CFB - 12 weeks results: 50 mg q.d.
Source text: Randomized, double-blind, placebo-controlled, multicenter, phase IIb dose finding study of Compound 1 (dosed as a [Compound 1:HCl:3H2O]) administered for 24 weeks as monotherapy to subjects with moderately to severely active rheumatoid arthritis who have an inadequate response to methotrexate alone
Double-blind, placebo-controlled, monotherapy study in subjects with moderately to severely active RA who have an inadequate response to methotrexate (MTX) (oral or parenteral).
280 subjects randomized to one of 3 doses of Compound 1 (dosed as a [Compound 1:HCl:3H2O]) or to placebo, given once daily (q.d.).
Twelve weeks of treatment with Compound 1 (dosed as a [Compound 1:HCl:3H2O]) at 50 mg, 100 mg, or 200 mg q.d.; or placebo. At Week 12, all subjects on placebo and the subjects on the 50 mg dose who have not achieved 20% improvement in swollen joint count (SJC66) and tender joint count (TJC68) will be assigned to 100 mg q.d. in a blinded fashion and will continue treatment until Week 24. Subjects in the other groups will maintain their randomized treatment until Week 24.
This assay relies on a homogeneous enzymatic colorimetric test. In the presence of magnesium ions, dextran sulfate selectively forms water-soluble complexes with LDL, VLDL and chylomicrons which are resistant to PEG-modified enzymes.
The cholesterol concentration of [HDL]-cholesterol is determined enzymatically by cholesterol esterase and cholesterol oxidase coupled with PEG to the amino groups (approx. 40%).
In the presence of peroxidase, the hydrogen peroxide generated reacts with 4-amino-antipyrine and Sodium N-(2-hydroxy-3-sulfopropyl)-3,5-dimethoxyaniline (HSDA) to form a purple-blue dye. The color intensity of this dye is directly proportional to the cholesterol concentration and is measured photometrically.
Human serum and plasma samples [HDL] determination was done on a Roche/Hitachi Cobas c 701/702 system which automatically calculate the analyte concentration of each sample. Samples containing precipitates are centrifuged before performing the assay.

[1] = 50 mg q.d. non responders switching to 100 mg q.d. at week 12 (N = 15), week 1
[2] = 50 mg q.d. non responders switching to 100 mg q.d. at week 12 (N = 15), week 2
[3] = 50 mg q.d. non responders switching to 100 mg q.d. at week 12 (N = 15), week 4
[4] = 50 mg q.d. non responders switching to 100 mg q.d. at week 12 (N = 15), week 8
[5] = 50 mg q.d. non responders switching to 100 mg q.d. at week 12 (N = 15), week 12
[6] = 50 mg q.d. non responders switching to 100 mg q.d. at week 12 (N = 15), week 16
[7] = 50 mg q.d. non responders switching to 100 mg q.d. at week 12 (N = 15), week 20
[8] = 50 mg q.d. non responders switching to 100 mg q.d. at week 12 (N = 15), week 24
[9] = 50 mg q.d. non responders switching to 100 mg q.d. at week 12, week 1
[10] = 50 mg q.d. non responders switching to 100 mg q.d. at week 12, week 2
[11] = 50 mg q.d. non responders switching to 100 mg q.d. at week 12, week 4
[12] = 50 mg q.d. responders (N = 57), week 1
[13] = 50 mg q.d. responders (N = 57), week 2
[14] = 50 mg q.d. responders (N = 57), week 4
[15] = 50 mg q.d. responders (N = 57), week 8
[16] = 50 mg q.d. responders (N = 57), week 12
[17] = 50 mg q.d. responders (N = 57), week 16
[18] = 50 mg q.d. responders (N = 57), week 20
[19] = 50 mg q.d. responders (N = 57), week 24

Compound: O=C(Nc1nc2cccc(-c3ccc(CN4CCS(=O)(=O)CC4)cc3)n2n1)C1CC1 [Compound 1, cyclopropanecarboxylic acid {5-[4-(1,1-dioxo-thiomorpholin-4-ylmethyl)-phenyl]-[1,2,4]triazolo[1,5-a]pyridin-2yl}-amide]
- [HDL] Mean CFB (50 mg q.d. (N = 72), week 1): 0.033 mmol/L
- [HDL] Median CFB (50 mg q.d. (N = 72), week 1): 0.050 mmol/L
- [HDL] Mean CFB (50 mg q.d. (N = 72), week 2): 0.055 mmol/L
- [HDL] Median CFB (50 mg q.d. (N = 72), week 2): 0.000 mmol/L
- [HDL] Mean CFB (50 mg q.d. (N = 72), week 4): 0.102 mmol/L
- [HDL] Median CFB (50 mg q.d. (N = 72), week 4): 0.100 mmol/L
- [HDL] Mean CFB (50 mg q.d. (N = 72), week 8): 0.120 mmol/L
- [HDL] Median CFB (50 mg q.d. (N = 72), week 8): 0.110 mmol/L
- [HDL] Mean CFB (50 mg q.d. (N = 72), week 12): 0.078 mmol/L
- [HDL] Median CFB (50 mg q.d. (N = 72), week 12): 0.065 mmol/L
- [HDL] Mean CFB - 24 weeks results [1]: 0.08 mmol/L
- [HDL] Median CFB - 24 weeks results [1]: 0.05 mmol/L
- [HDL] Mean CFB - 24 weeks results [2]: 0.05 mmol/L
- [HDL] Median CFB - 24 weeks results [2]: 0.04 mmol/L
- [HDL] Mean CFB - 24 weeks results [3]: 0.14 mmol/L
- [HDL] Median CFB - 24 weeks results [3]: 0.11 mmol/L
- [HDL] Mean CFB - 24 weeks results [4]: 0.09 mmol/L
- [HDL] Median CFB - 24 weeks results [4]: 0.10 mmol/L
- [HDL] Mean CFB - 24 weeks results [5]: 0.15 mmol/L
- [HDL] Median CFB - 24 weeks results [5]: 0.14 mmol/L
- [HDL] Mean CFB - 24 weeks results [6]: 0.20 mmol/L
- [HDL] Median CFB - 24 weeks results [6]: 0.21 mmol/L
- [HDL] Mean CFB - 24 weeks results [7]: 0.21 mmol/L
- [HDL] Median CFB - 24 weeks results [7]: 0.25 mmol/L
- [HDL] Mean CFB - 24 weeks results [8]: 0.30 mmol/L
- [HDL] Median CFB - 24 weeks results [8]: 0.31 mmol/L
- [HDL] Mean percentage CFB - 24 weeks results [9]: 5.25%
- [HDL] Median percentage CFB - 24 weeks results [9]: 3.68%
- [HDL] Mean percentage CFB - 24 weeks results [10]: 4.69%
- [HDL] Median percentage CFB - 24 weeks results [10]: 4.17%
- [HDL] Mean percentage CFB - 24 weeks results [11]: 10.56%
- [HDL] Median percentage CFB - 24 weeks results [11]: 10.14%
- [HDL] Mean percentage CFB - 24 weeks results (50 mg q.d. non responders switching to 100 mg q.d. at week 12, week 8): 5.96%
- [HDL] Median percentage CFB - 24 weeks results (50 mg q.d. non responders switching to 100 mg q.d. at week 12, week 12): 7.95%
- [HDL] Median percentage CFB - 24 weeks results (50 mg q.d. non responders switching to 100 mg q.d. at week 12, week 16): 14.34%
- [HDL] Median percentage CFB - 24 weeks results (50 mg q.d. non responders switching to 100 mg q.d. at week 12, week 20): 16.22%
- [HDL] Median percentage CFB - 24 weeks results (50 mg q.d. non responders switching to 100 mg q.d. at week 12, week 24): 19.84%
- [HDL] Mean CFB - 24 weeks results [12]: 0.02 mmol/L
- [HDL] Median CFB - 24 weeks results [12]: 0.04 mmol/L
- [HDL] Mean CFB - 24 weeks results [13]: 0.05 mmol/L
- [HDL] Median CFB - 24 weeks results [13]: 0.00 mmol/L
- [HDL] Mean CFB - 24 weeks results [14]: 0.09 mmol/L
- [HDL] Median CFB - 24 weeks results [14]: 0.10 mmol/L
- [HDL] Mean CFB - 24 weeks results [15]: 0.13 mmol/L
- [HDL] Median CFB - 24 weeks results [15]: 0.14 mmol/L
- [HDL] Mean CFB - 24 weeks results [16]: 0.06 mmol/L
- [HDL] Median CFB - 24 weeks results [16]: 0.05 mmol/L
- [HDL] Mean CFB - 24 weeks results [17]: 0.08 mmol/L
- [HDL] Median CFB - 24 weeks results [17]: 0.03 mmol/L
- [HDL] Mean CFB - 24 weeks results [18]: 0.11 mmol/L
- [HDL] Median CFB - 24 weeks results [18]: 0.08 mmol/L
- [HDL] Mean CFB - 24 weeks results [19]: 0.17 mmol/L
- [HDL] Median CFB - 24 weeks results [19]: 0.10 mmol/L
- [HDL] Mean percentage CFB - 24 weeks results (50 mg q.d. responders, week 1): 1.48%
- [HDL] Median percentage CFB - 24 weeks results (50 mg q.d. responders, week 1): 2.78%
- [HDL] Mean percentage CFB - 24 weeks results (50 mg q.d. responders, week 2): 4.14%
- [HDL] Mean percentage CFB - 24 weeks results (50 mg q.d. responders, week 4): 7.26%
- [HDL] Median percentage CFB - 24 weeks results (50 mg q.d. responders, week 4): 8.30%
- [HDL] Mean percentage CFB - 24 weeks results (50 mg q.d. responders, week 8): 9.33%
- [HDL] Median percentage CFB - 24 weeks results (50 mg q.d. responders, week 8): 8.81%
- [HDL] Mean percentage CFB - 24 weeks results (50 mg q.d. responders, week 12): 4.45%
- [HDL] Median percentage CFB - 24 weeks results (50 mg q.d. responders, week 12): 4.00%
- [HDL] Mean percentage CFB - 24 weeks results (50 mg q.d. responders, week 16): 6.26%
- [HDL] Median percentage CFB - 24 weeks results (50 mg q.d. responders, week 16): 2.82%
- [HDL] Mean percentage CFB - 24 weeks results (50 mg q.d. responders, week 20): 7.61%
- [HDL] Median percentage CFB - 24 weeks results (50 mg q.d. responders, week 20): 5.63%
- [HDL] Mean percentage CFB - 24 weeks results (50 mg q.d. responders, week 24): 11.90%
- [HDL] Mean percentage CFB - 12 weeks results (week 1): 2.27%
- [HDL] Median percentage CFB - 12 weeks results (week 1): 3.23%
- [HDL] Mean percentage CFB - 12 weeks results (week 2): 4.26%
- [HDL] Median percentage CFB - 12 weeks results (week 2): 0.00%
- [HDL] Mean percentage CFB - 12 weeks results (week 4): 7.96%
- [HDL] Median percentage CFB - 12 weeks results (week 4): 8.70%
- [HDL] Mean percentage CFB - 12 weeks results (week 8): 8.60%
- [HDL] Median percentage CFB - 12 weeks results (week 8): 7.00%
- [HDL] Mean percentage CFB - 12 weeks results (week 12): 5.77%
- [HDL] Median percentage CFB - 12 weeks results (week 12): 4.67%
- [HDL] Mean CFB (100 mg q.d. (N = 70), week 1): 0.085 mmol/L
- [HDL] Mean CFB - 24 weeks results (100 mg q.d. (N = 70), week 1): 0.09 mmol/L
- [HDL] Median CFB (100 mg q.d. (N = 70), week 1): 0.050 mmol/L
- [HDL] Median CFB - 24 weeks results (100 mg q.d. (N = 70), week 1): 0.05 mmol/L
- [HDL] Mean CFB (100 mg q.d. (N = 70), week 2): 0.131 mmol/L
- [HDL] Mean CFB - 24 weeks results (100 mg q.d. (N = 70), week 2): 0.13 mmol/L
- [HDL] Median CFB (100 mg q.d. (N = 70), week 2): 0.100 mmol/L
- [HDL] Median CFB - 24 weeks results (100 mg q.d. (N = 70), week 2): 0.10 mmol/L
- [HDL] Mean CFB (100 mg q.d. (N = 70), week 4): 0.194 mmol/L
- [HDL] Mean CFB - 24 weeks results (100 mg q.d. (N = 70), week 4): 0.19 mmol/L
- [HDL] Median CFB (100 mg q.d. (N = 70), week 4): 0.175 mmol/L
- [HDL] Median CFB - 24 weeks results (100 mg q.d. (N = 70), week 4): 0.18 mmol/L
- [HDL] Mean CFB (100 mg q.d. (N = 70), week 8): 0.171 mmol/L
